This is an account of results in US20260115203A1 (LABORATORIOS LITAPHAR, S.L., priority 2023, published 2026).

Series [1] has as its target T1, human glucocorticoid receptor (Homo sapiens, UniProt P04150).
T1 sequence (P04150 1-777): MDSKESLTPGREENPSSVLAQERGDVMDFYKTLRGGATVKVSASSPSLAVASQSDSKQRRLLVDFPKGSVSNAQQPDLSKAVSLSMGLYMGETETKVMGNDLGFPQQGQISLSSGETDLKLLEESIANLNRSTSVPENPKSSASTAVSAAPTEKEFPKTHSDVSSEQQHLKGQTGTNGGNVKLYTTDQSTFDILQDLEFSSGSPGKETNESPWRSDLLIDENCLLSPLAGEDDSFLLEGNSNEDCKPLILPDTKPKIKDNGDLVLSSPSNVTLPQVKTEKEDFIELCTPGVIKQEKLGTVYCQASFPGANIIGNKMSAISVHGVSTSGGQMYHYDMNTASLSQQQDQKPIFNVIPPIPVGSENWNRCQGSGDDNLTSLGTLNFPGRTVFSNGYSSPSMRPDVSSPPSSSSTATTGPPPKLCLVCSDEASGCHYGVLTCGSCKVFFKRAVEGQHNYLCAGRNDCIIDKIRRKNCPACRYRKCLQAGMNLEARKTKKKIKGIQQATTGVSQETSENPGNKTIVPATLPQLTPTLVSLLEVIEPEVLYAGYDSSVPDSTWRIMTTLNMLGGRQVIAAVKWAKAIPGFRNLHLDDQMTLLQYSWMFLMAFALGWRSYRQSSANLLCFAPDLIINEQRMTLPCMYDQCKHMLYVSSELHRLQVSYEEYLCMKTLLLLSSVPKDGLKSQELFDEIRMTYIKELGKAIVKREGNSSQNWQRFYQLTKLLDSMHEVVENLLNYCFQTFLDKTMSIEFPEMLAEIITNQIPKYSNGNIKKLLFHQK
Conditions: cited from earlier work.

Series [2] has as its target T2, human progesterone receptor (Homo sapiens, UniProt P06401).
T2 sequence (P06401 1-933): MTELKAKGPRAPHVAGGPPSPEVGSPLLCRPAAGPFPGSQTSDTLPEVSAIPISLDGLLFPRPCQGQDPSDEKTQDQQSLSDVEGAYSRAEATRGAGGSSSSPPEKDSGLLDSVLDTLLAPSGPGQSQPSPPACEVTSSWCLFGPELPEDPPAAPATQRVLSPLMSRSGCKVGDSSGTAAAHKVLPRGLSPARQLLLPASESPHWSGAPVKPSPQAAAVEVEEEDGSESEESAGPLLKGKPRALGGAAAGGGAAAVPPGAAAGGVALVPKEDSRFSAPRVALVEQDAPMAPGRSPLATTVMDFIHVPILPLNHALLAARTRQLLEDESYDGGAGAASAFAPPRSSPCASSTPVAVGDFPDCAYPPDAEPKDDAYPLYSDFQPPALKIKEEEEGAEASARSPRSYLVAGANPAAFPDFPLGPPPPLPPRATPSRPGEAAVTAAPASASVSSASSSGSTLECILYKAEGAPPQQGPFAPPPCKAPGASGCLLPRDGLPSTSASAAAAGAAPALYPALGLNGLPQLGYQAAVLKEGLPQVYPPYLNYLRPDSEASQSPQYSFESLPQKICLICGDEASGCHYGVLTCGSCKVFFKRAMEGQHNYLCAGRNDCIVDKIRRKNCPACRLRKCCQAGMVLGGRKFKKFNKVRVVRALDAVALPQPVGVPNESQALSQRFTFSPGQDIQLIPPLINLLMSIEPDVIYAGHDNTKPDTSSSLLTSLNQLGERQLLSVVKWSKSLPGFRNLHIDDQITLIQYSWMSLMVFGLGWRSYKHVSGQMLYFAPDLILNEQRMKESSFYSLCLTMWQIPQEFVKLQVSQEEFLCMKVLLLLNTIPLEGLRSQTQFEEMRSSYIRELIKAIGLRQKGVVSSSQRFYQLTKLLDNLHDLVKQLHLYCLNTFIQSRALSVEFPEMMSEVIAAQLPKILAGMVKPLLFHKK
Conditions: cited from earlier work.

For series [3] the following is noted: compared with parent drug mifepristone; cited from earlier work.
The test system of series [4] is endometriosis in reproductive-age women. The experiment in a line: Randomized, double-blind clinical trial of mifepristone 2.5 mg and 5 mg vs. placebo (EudraCT 2018-002367-26), endometriosis associated pain by VAS. The format is in vivo. From the text:
Both mifepristone products were formulated as tablets with the following respective compositions: […]
The planned number of subjects to be included in the whole clinical trial was 490.
The principal inclusion criteria were: • [1] Premenopausal female, between 18 and 45 years of age inclusive, at the time of signing consent • [2] Patients with Endometriosis Associated Pelvic Pain (EAPP: i.e. any type of pelvic pain associated with endometriosis: nonmenstrual pelvic pain, dysmenorrhea, dyschezia and dyspareunia) as measured by Visual Analogue Scale (VAS)≥40 mm at least once in the previous 4 weeks from baseline visit • [3] Patients with a history of EAPP for at least the past 6 months prior to the initial screening visit • [4] Endometriosis diagnosed by laparoscopy and/or surgery in the past 10 years or less or diagnosed by MRI or transvaginal ultrasound in the past 5 years • [5] Patients with a history of regular menstrual cycles (21-35 days) while not being on any pharmacological treatment that could alter the menstrual cycle (e.g. oral contraceptive pills) • [6] Patients who agree to use only ibuprofen 400 mg as rescue medication up to a total daily dose of not more than 2400 mg • [7] Patients willing and able (e.g. mental and physical condition) to participate in all aspects of the study as evidenced by providing signed written informed consent • [8] Patient agrees to use double barrier contraception birth control methods (e.g. condom with spermicide) during the entire length of participation in the study. […] History of hypersensitivity or intolerance to the active substance or any of the excipients of the study medication • [2] Subject is pregnant or breast-feeding or is planning a pregnancy within the duration of the study or is less than 6 months postpartum, post-abortion, or post-lactation at the time of entry into the screening period • [3] Previous use of hormonal agents before the Screening visit: ≤24 weeks for GnRH agonists; ≤12 weeks for depot progestogens and danazol: ≤6 weeks for oral contraceptives • [4] Patients with history of any cancer (including breast cancer) and/or histological diagnosis of endometrial atypical hyperplasia at baseline (note: the combination of endometrial thickness<5 mm determined by transvaginal ultrasound and insufficient material for histological evaluation from the endometrial biopsy will be regarded as atrophic endometrium) • [5] Other clinically significant gynaecological condition causing abnormal uterine bleeding already known or identified on Screening such as severe adenomyosis or symptomatic uterine fibroids requiring treatment • [6] Subject has current or history of abnormal genital bleeding • [7] Presence of ovarian cyst of unknown etiology • [8] Cervical smear with pathological findings: class III or higher according to Papanicolaou, class IIp or higher according to the Munich Ill nomenclature or ASC-US or higher according to the Bethesda system • [9] Surgical treatment of endometriosis within 3 months prior to the screening visit • [10] Presence of chronic pain other than pain due to endometriosis • [11] Hepatic insufficiency • [12] History of, or complications of, thrombosis, embolism, or serious cardiac, respiratory (severe asthma not adequately controlled by treatment), renal, hematologic, endocrine diseases • [13] Uncontrolled or inadequately controlled hypertension at the time of screening with a resting supine systolic or diastolic blood pressure>180 mmHg or >95 mmHg, respectively • [14] Subject with hereditary porphyria • [15] Abnormal laboratory findings considered by the investigator as clinically significant • [16] Positive results for HBs-Ag, anti-HCV and HIV-1/HIV-2-antibodies • [17] […]

In series [5] the test system is women with endometriosis. The note with it: 100 mg orally daily, three months, cited from earlier work.
For series [6], the system named is women with endometriosis. Conditions: 50 mg orally daily, 6 months, cited from earlier work.
Series [7] relates to women with endometriosis. Conditions: 5 mg orally daily, 6 months, cited from earlier work.
Series [8] concerns women with laparoscopic diagnostic of endometriosis. The note with it: cited from earlier work.

Structures are written as SMILES. “Also recorded” adds a separate entry of the source. Like-named read-outs stand apart in the source and are kept apart here.

Turning to `CC#C[C@]1(O)CC[C@H]2[C@@H]3CCC4=CC(=O)CCC4=C3[C@@H](c3ccc(NC)cc3)C[C@@]21C` [RU 42633], the “affinity toward the human glucocorticoid receptor” value in series [1] is given as “considerable affinity”. Also, the “affinity toward the human progesterone receptor” value in series [2] is reported as “considerable affinity”. Moreover, the serum concentrations entry in series [3] is given as “in a similar range as those of the parent drug”.

On to `CC#C[C@]1(O)CC[C@H]2[C@@H]3CCC4=CC(=O)CCC4=C3[C@@H](c3ccc(N(C)C)cc3)C[C@@]21C` [mifepristone], for which, in series [4] (2.5 mg (T1) vs 5 mg (T2) per day), the “pain relief, 2.5 mg daily dose compared with 5 mg daily dose” value is reported as “more pronounced than the 5 mg group; also recorded: more effective than the 5 mg dose; also recorded: less pelvic pain than with a daily dose of 5 mg”. In series [4] (2.5 mg tablet every day as monotherapy, lesions in cesarean sections or ovarian endometriomas), the “pain associated with extra-pelvic endometriosis” value is “effective to reduce the pain associated with extra-pelvic endometriosis; also recorded: appropriate pain relief”. Also, in series [4] (5 mg dose compared with 2.5 mg dose), the endometrial thickening result was “markedly greater endometrial thickening than the lower dose of 2.5 mg”. The “EAP (VAS)” value in series [4] (T1, 2.5 mg mifepristone per day, 1 month of treatment) is on record as 29.19; in series [4] (T1, 2.5 mg mifepristone per day, 2 months of treatment) it was 24.61; in series [4] (T1, 2.5 mg mifepristone per day, 3 months of treatment) it was 23.63; in series [4] (T1, 2.5 mg mifepristone per day, 4 months of treatment), 22.31; in series [4] (T1, 2.5 mg mifepristone per day, month 0 (before treatment)) it was 32.81; in series [4] (T2, 5 mg mifepristone per day, 1 month of treatment), 29.30. For the same molecule, the “EAP (VAS)” value in series [4] (T2, 5 mg mifepristone per day, 2 months of treatment) turned out to be 26.11; in series [4] (T2, 5 mg mifepristone per day, 3 months of treatment), 24.58; in series [4] (T2, 5 mg mifepristone per day, 4 months of treatment) it was 25.01; in series [4] (T2, 5 mg mifepristone per day, month 0 (before treatment)), 32.81. Also, the “intensity of pain associated with endometriosis” value in series [4] (daily dose of 2.5 mg alone, no analgesic rescue medication) is given as “significant reduction”. Further, in series [5] (six women), the amenorrhea entry is reported as “reported by all study participants”. For the same molecule, the figures for the pelvic pain entry in series [5] (six women) and in series [7] (seven women) were “all women also reported improvement” and “improved in six of seven patients”, respectively. In series [5], the “extent of endometriosis (follow-up laparoscopy)” value was “no significant change”. In addition, in series [6] (all patients), the amenorrhea / hypoestrogenism entry is reported as “amenorrhea without hypoestrogenism”. Also, the “pelvic pain and uterine cramping” value in series [6] (nine women) is “improved in all patients”. In series [6], the “regression of endometriosis (laparoscopic assessment, AFS score)” value is on record as 55%. Also, the cyclic bleeding entry in series [7] (seven women) is given as “ceased in all patients”. For the same molecule, in series [7], the “decrease of mean endometriosis scores” value was “decreased by only %”. For the same molecule, the “amenorrhea and clinical improvement, 2.5 mg group vs 5 and 10 mg groups” value in series [8] (2.5 mg oral dose) is “significantly lower percentages of amenorrhea and clinical improvement than the 5 and 10 mg groups”. Besides, in series [8] (2.5 mg oral dose), the “use of analgesics (rescue therapy), 2.5 mg group vs 5 and 10 mg groups” value was “significantly greater use of analgesics”. Besides, the effectiveness against placebo entry in series [8] (2.5, 5 and 10 mg oral doses, all treatment groups) was “more effective than the placebo group”. Besides, the “clinical improvement, 5 mg vs 10 mg” value in series [8] (after 90 and 180 days of treatment) is “no differences were observed”.

As for `CN(C)c1ccc([C@H]2C[C@@]3(C)[C@@H](CC[C@]3(O)C#CCO)[C@@H]3CCC4=CC(=O)CCC4=C32)cc1` [RU 42698], the “affinity toward the human glucocorticoid receptor” value in series [1] was “considerable affinity”. The “affinity toward the human progesterone receptor” value in series [2] was “considerable affinity”. For the same molecule, the serum concentrations entry in series [3] was “in a similar range as those of the parent drug”.

For `CC#C[C@]1(O)CC[C@H]2[C@@H]3CCC4=CC(=O)CCC4=C3[C@@H](c3ccc(N)cc3)C[C@@]21C` [RU 42848], in series [1], the “affinity toward the human glucocorticoid receptor” value is on record as “considerable affinity”. Also, the “affinity toward the human progesterone receptor” value in series [2] was “considerable affinity”. In addition, the serum concentrations result in series [3] is reported as “in a similar range as those of the parent drug”.
